This is an account of results in patent US7863269B2, “Imino-imidazo-pyridine derivatives having antithrombotic activity” (sanofi-aventis, priority 2006, dated 2011).

The experiment deals with T1, PAR1 (Homo sapiens, UniProt P25116).
T1 construct: endogenous in cells; host or cells: washed platelets from platelet-rich plasma of healthy volunteers
T1 sequence (P25116 22-425): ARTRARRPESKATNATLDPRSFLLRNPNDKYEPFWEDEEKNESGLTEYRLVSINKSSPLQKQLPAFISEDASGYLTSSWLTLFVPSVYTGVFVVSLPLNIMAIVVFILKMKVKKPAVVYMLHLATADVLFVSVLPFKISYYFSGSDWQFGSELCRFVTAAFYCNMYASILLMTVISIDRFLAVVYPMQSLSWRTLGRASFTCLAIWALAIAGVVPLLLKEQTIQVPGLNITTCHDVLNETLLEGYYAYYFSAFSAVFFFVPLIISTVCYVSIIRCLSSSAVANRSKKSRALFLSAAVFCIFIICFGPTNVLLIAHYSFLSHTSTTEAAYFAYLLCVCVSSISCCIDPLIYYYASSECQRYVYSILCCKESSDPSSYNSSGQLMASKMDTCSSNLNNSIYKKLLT
As to the kind of experiment: Inhibition of PAR1-mediated platelet aggregation induced by TRAP (96-well format). The experiment is classed as cell-based. Conditions: washed platelets from blood of healthy volunteers; agonist TRAP (thrombin-receptor activating peptide) solution 70-100 μM; AUC at 650 nm, 37° C., 20 minutes. As to the method:
PAR 1 determination method: Inhibition of PAR1-mediated platelet aggregation The pharmacological testing of the substances was carried out in the platelet aggregation induced by TRAP (thrombin-receptor activating peptide) in a 96-well format. To this end, blood from healthy volunteers was taken in 20 ml syringes into which 2 ml of 3.13% strength sodium citrate solution was initially introduced. After a 20-minute centrifugation at 150×g, the platelet-rich plasma (PRP) was separated off and treated with 1 μl of PGE1 solution (500 μg/ml in ethanol)/ml of PRP. After incubation at RT for 5 minutes, this was centrifuged at 120×g for 15 minutes in order to remove the leucocytes. The leucocyte-free PRP was transferred to 15 ml PP tubes in 5 ml portions and centrifuged off at 360×g for 15 minutes in order to pellet the platelets. Subsequently, the plasma was decanted and the platelet sediment from 5 ml of PRP was resuspended in 1 ml of Tyrode (120 mM NaCl, 2.6 mM KCl, 12 mM NaHCO3, 0.39 mM NaH2PO4×H2O, 10 mM HEPES, 0.35% BSA, 5.5 mM glucose, pH 7.4) and adjusted with Tyrode to a platelet count of 3×10^5/microliter (μl). 13 ml of this cell suspension were then treated with 866 μl of 10 mM CaCl2 solution and 120 μl thereof per well were pipetted to a 96-well plate, in which 15 μl of the substance to be tested were initially introduced. After incubation in the dark at RT for 30 minutes, 15 μl of a TRAP solution (70-100 μM) were added as the agonist and kinetics were recorded with shaking at 37° C. for 20 minutes in a SpectraMax 340 at 650 nm. The areas under the curves of negative control (Tyrode/DMSO) and positive control (15 μl of agonist/DMSO) were calculated and the difference was defined as the 100% value. The substances to be tested were pipetted as a dilution series in a duplicate determination, likewise the AUC of each substance concentration was determined and the % inhibition of the AUC against the control was calculated. By means of the % inhibition, the IC50 was calculated with the aid of a nonlinear regression analysis according to the 4 parameter equation.
Usually IC50 stands for the concentration at which inhibition is half-maximal. Regarding `N=c1n(CC(=O)c2cccc(S(F)(F)(F)(F)F)c2)cc2ccccn12` [Example 2, 2-(3-Iminoimidazo[1,5-a]pyridin-2-yl)-1-(3-pentafluorosulfanylphenyl)ethanone], the IC50 worked out at 13000 nM.

Molecule `CCOC(=O)c1cc(OC)n2c(=N)n(CC(=O)c3cc(N4CCOCC4)c(OC)c(C(C)(C)C)c3)cc2c1` [Example 20, Ethyl 2-[2-(3-tert-butyl-4-methoxy-5-morpholin-4-ylphenyl)-2-oxoethyl]-3-imino-5-methoxy-2,3-dihydroimidazo[1,5-a]pyridine-7-carboxylate] registered an IC50 of 70 nM.

Regarding `COC(=O)c1ccc2cn(CC(=O)c3cc(N4CCOCC4)c(OC)c(C(C)(C)C)c3)c(=N)n2c1` [Example 8, Methyl 2-[2-(3-tert-butyl-4-methoxy-5-morpholin-4-ylphenyl)-2-oxoethyl]-3-imino-2,3-dihydroimidazo[1,5-a]pyridine-6-carboxylate], the IC50 amounted to 510 nM.

The molecule `CC(C)(C)c1cc(C(=O)Cn2cc3cc(C(F)(F)F)ccn3c2=N)cc(C(C)(C)C)c1O` [Example 6b, 1-(3,5-Di-tert-butyl-4-hydroxyphenyl)-2-(3-imino-7-trifluoromethylimidazo[1,5-a]pyridin-2-yl)ethanone] showed an IC50 of 730 nM.

Molecule `CCOc1cc2cn(CC(=O)c3cc4c(c(C(C)(C)C)c3)OCCN4C)c(=N)n2cc1C(=O)NC` [Example 12, 2-[2-(8-tert-Butyl-4-methyl-3,4-dihydro-2H-benzo[1,4]oxazin-6-yl)-2-oxoethyl]-7-ethoxy-3-imino-2,3-dihydroimidazo[1,5-a]pyridine-6-carboxylic acid methylamide] registered an IC50 of 20 nM.

In turn, `CCOc1ccc2n(c1=O)C(=N)N(CC(=O)c1cc(N3CCOCC3)c(OC)c(C(C)(C)C)c1)C2` [Example 18, 2-[2-(3-tert-Butyl-4-methoxy-5-morpholin-4-ylphenyl)-2-oxoethyl]-6-ethoxy-3-imino-2,3-dihydro-1H-imidazo[1,5-a]pyridin-5-one] came in with an IC50 of 9500 nM.

On to `CC(C)(C)c1cc(C(=O)Cn2c(C3CC3)c3ccccn3c2=N)cc(C(C)(C)C)c1O` [Example 3, 2-(1-Cyclopropyl-3-iminoimidazo[1,5-a]pyridin-2-yl)-1-(3,5-di-tert-butyl-4-hydroxyphenyl)ethanone], for which the IC50 was found to be 850 nM.

On to `CCOc1cc2cn(CC(=O)c3cc(N4CCOCC4)c(OC)c(C(C)(C)C)c3)c(=N)n2cc1C(=O)NC` [Example 19, 2-[2-(3-tert-Butyl-4-methoxy-5-morpholin-4-ylphenyl)-2-oxoethyl]-7-ethoxy-3-imino-2,3-dihydroimidazo[1,5-a]pyridine-6-carboxylic acid Methylamide], for which the IC50 worked out at 900 nM.
